As a reminder, the Ki is a measure of affinity in units of concentration, obtained from inhibition or displacement.

These results are taken from BindingDB's records for doi:10.1002/cbic.200700524 (Universit&#224, 2008).

Test [1] deals with Thymidylate synthase (Escherichia coli (strain K12), UniProt P0A884). The experiment in a line: Inhibition Assay. As for the experimental part:
(§1) All compounds were screened for inhibitory activity against Lactobacillus casei thymidylate synthase (LcTS) and Escherichia coli thymidylate synthase (EsTS). The inhibition experiments were conducted by measuring the effects of the inhibitor at different concentrations on the initial velocity of the enzyme in the presence of a limited amount of the folate substrate.

In test [2] the target is T1, Thymidylate synthase (Lacticaseibacillus casei, UniProt P00469).
T1 sequence (P00469 whole entry): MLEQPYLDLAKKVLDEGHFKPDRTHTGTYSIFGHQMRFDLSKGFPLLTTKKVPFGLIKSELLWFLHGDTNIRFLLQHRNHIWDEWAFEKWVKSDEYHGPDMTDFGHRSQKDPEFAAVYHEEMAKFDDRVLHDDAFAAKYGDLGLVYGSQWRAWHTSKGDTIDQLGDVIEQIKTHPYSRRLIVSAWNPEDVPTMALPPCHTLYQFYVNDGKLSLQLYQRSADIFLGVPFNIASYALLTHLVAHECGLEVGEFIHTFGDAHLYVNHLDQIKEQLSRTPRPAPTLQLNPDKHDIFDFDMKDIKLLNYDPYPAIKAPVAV
In words: Inhibition Assay. As for the experimental part: as §1

Sequence of Thymidylate synthase (Escherichia coli (strain K12), UniProt P0A884) (P0A884 whole entry): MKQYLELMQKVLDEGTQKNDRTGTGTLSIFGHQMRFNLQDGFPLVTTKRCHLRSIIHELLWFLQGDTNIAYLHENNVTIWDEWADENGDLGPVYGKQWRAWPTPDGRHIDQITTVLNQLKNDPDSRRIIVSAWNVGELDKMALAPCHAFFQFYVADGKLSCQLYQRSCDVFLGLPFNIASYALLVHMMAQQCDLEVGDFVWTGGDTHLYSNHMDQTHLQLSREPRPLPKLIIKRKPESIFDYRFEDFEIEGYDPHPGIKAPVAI

For the compound `CN(C)c1cccc2c(S(=O)(=O)Oc3ccc(C[C@H](NS(=O)(=O)Cc4ccccc4)C(=O)O)cc3)cccc12` [Dansyl derivative, 8L], the Ki at Thymidylate synthase [1] is above 1800 µM; at Thymidylate synthase [2] it was 4.7 µM.
In the same order, the values of `CN(C)c1cccc2c(S(=O)(=O)Oc3ccc4c(c3)CN(S(=O)(=O)CC35CCC(C(=O)C3)C5(C)C)[C@H](C(=O)O)C4)cccc12` (stereo not given in full) [Dansyl derivative, 6R] are 131 µM and 23 µM.
For `CN(C)c1cccc2c(S(=O)(=O)Oc3ccc4c(c3)CN(S(=O)(=O)Cc3ccccc3)[C@H](C(=O)O)C4)cccc12` [Dansyl derivative, 8R], in that order: 194 µM and 10 µM.
As to `CN(C)c1cccc2c(S(=O)(=O)Oc3ccc(C[C@H](NS(=O)(=O)c4cc(Br)c(Br)s4)C(=O)O)cc3)cccc12` [Dansyl derivative, 9L], the values for the Ki at Thymidylate synthase [1] and at Thymidylate synthase [2] were above 1330 µM and 27 µM, respectively.
In the same order, the values of `CN(C)c1cccc2c(S(=O)(=O)Oc3ccc(C[C@H](NS(=O)(=O)c4ccc(C(F)(F)F)cc4[N+](=O)[O-])C(=O)O)cc3)cccc12` [Dansyl derivative, 5L] are above 636 µM and 6.7 µM.
For `CN(C)c1cccc2c(S(=O)(=O)Oc3ccc4c(c3)CN(S(=O)(=O)c3ccc(C(F)(F)F)cc3[N+](=O)[O-])[C@H](C(=O)O)C4)cccc12` [Dansyl derivative, 5R], the Ki was 61 µM at Thymidylate synthase [1] and 5.5 µM at Thymidylate synthase [2].
In the same order, the values of `CN(C)c1cccc2c(S(=O)(=O)Oc3ccc4c(c3)CN(C(=O)c3ccc5ccccc5c3)[C@H](C(=O)O)C4)cccc12` [Dansyl derivative, 7R] are 1530 µM and 9.4 µM.
In the same order, the values of `CN(C)c1cccc2c(S(=O)(=O)Oc3ccc(C[C@H](NS(=O)(=O)CC45CCC(C(=O)C4)C5(C)C)C(=O)O)cc3)cccc12` (stereo not given in full) [Dansyl derivative, 6L] are above 1340 µM and 5.8 µM.
In the same order, the values of `CN(C)c1cccc2c(S(=O)(=O)Oc3ccc4c(c3)CN(S(=O)(=O)c3cccc5c(N(C)C)cccc35)[C@H](C(=O)O)C4)cccc12` [Dansyl derivative, rigid DDT, 1R] are 13 µM and 0.8 µM.
`CN(C)c1cccc2c(S(=O)(=O)Oc3ccc4c(c3)CN(S(=O)(=O)c3ccc([N+](=O)[O-])cc3)[C@H](C(=O)O)C4)cccc12` [Dansyl derivative, 3R]: the Ki at Thymidylate synthase [1] came to 23 µM; on Thymidylate synthase [2], 5.9 µM.
For `CN(C)c1cccc2c(S(=O)(=O)N[C@@H](Cc3cc(I)c(OS(=O)(=O)c4cccc5c(N(C)C)cccc45)c(I)c3)C(=O)O)cccc12` [Dansyl derivative, 2L], in that order: 8.2 µM and 4.4 µM.
In the same order, the values of `CN(C)c1cccc2c(S(=O)(=O)Oc3ccc4c(c3)CN(C(=O)c3ccc([N+](=O)[O-])cc3)[C@H](C(=O)O)C4)cccc12` [Dansyl derivative, 4R] are 36 µM and 15 µM.
For `CN(C)c1cccc2c(S(=O)(=O)Oc3ccc(C[C@H](NS(=O)(=O)c4ccc([N+](=O)[O-])cc4)C(=O)O)cc3)cccc12` [Dansyl derivative, 3L], the Ki on Thymidylate synthase [1] was above 1330 µM; on Thymidylate synthase [2] it was 2.5 µM.
Consider `CN(C)c1cccc2c(S(=O)(=O)Oc3ccc(C[C@H](NC(=O)c4ccc([N+](=O)[O-])cc4)C(=O)O)cc3)cccc12` [Dansyl derivative, 4L], for which the Ki was above 1330 µM on Thymidylate synthase [1] and 15 µM at Thymidylate synthase [2].
For `CN(C)c1cccc2c(S(=O)(=O)Oc3c(I)cc4c(c3I)CN(S(=O)(=O)c3cccc5c(N(C)C)cccc35)[C@H](C(=O)O)C4)cccc12` [Dansyl derivative, 2R], in that order: 7 µM and 3.6 µM.
The compound `CN(C)c1cccc2c(S(=O)(=O)N[C@@H](Cc3ccc(OS(=O)(=O)c4cccc5c(N(C)C)cccc45)cc3)C(=O)O)cccc12` [Dansyl derivative, DDT, 1L] returned a Ki at Thymidylate synthase [1] of 1.8 µM.
Regarding `CN(C)c1cccc2c(S(=O)(=O)Oc3ccc(C[C@H](NC(=O)c4ccc5ccccc5c4)C(=O)O)cc3)cccc12` [Dansyl derivative, 7L], the Ki is above 1470 µM on Thymidylate synthase [1] and 17 µM on Thymidylate synthase [2].
For `CN(C)c1cccc2c(S(=O)(=O)Oc3ccc4c(c3)CN(S(=O)(=O)c3cc(Br)c(Br)s3)[C@H](C(=O)O)C4)cccc12` [Dansyl derivative, 9R], in that order: 60 µM and 4 µM.
